SMILES strings stand for the structures. Square brackets hold non-standard residues; d marks the D form. Peptide text beside a SMILES is read from it. * marks the point of attachment. Phe(3-F) = N[C@@H](Cc1cccc(F)c1)C(=O)O; Phe(4-F) = N[C@@H](Cc1ccc(F)cc1)C(=O)O; Phe(2-F) = N[C@@H](Cc1ccccc1F)C(=O)O; Arg(Me) = CNC(=N)NCCC[C@H](N)C(=O)O; His(π-Me) = Cn1cncc1C[C@H](N)C(=O)O; cisHyp = O=C(O)[C@@H]1C[C@H](O)CN1; Hyp = O=C(O)[C@@H]1C[C@@H](O)CN1; Pip(4-aza) = O=C(O)[C@@H]1CNCCN1; Thz = O=C(O)[C@@H]1CSCN1; Aib = CC(C)(N)C(=O)O; NHBn = c1ccc(CN*)cc1; Glycolyl = O=C(CO)*; azaGly = NNC(=O)O

T1 sequence (Q969F8 whole entry L364H): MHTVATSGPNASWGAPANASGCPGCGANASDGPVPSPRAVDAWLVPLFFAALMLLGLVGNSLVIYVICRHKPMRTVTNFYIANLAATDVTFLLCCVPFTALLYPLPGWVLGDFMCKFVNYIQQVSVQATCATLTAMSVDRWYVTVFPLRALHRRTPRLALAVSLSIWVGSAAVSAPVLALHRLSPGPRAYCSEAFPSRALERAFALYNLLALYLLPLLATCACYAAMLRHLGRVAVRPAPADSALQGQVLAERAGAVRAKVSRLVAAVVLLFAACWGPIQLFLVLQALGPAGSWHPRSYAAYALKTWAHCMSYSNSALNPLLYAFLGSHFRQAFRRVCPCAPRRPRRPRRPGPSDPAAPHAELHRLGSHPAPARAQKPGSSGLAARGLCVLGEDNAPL

This experiment has as its target T1, hOT7T175 (Homo sapiens, UniProt Q969F8).
T1 construct: expressed in transfected cells
The experiment can be described thus: Assay for intracellular Ca ion level-increasing activity using FLIPR. It is filed as cell-based. The settings on record: hOT7T175/CHO cells, relative to Metastin (1-54). Put shortly: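 CHO/dhfr− cells stably transfected with hOT7T175, selected for high metastin response, loaded with Fluo3-AM for 1 h at 37 °C in HANKS/HBSS (pH 7.4) with probenecid. Peptides were diluted from 1×10^−3 M DMSO stock into HANKS/HBSS with 2.5 mM probenecid, 0.2% BSA, 0.1% CHAPS; intracellular Ca rise read by FLIPR.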
Turning to `CNC(=N)NCCC[C@H](NC(=O)[C@H](CC(C)C)NC(=O)NNC(=O)[C@H](Cc1cccc(F)c1)NC(=O)[C@@H](NC(=O)[C@H](CC(N)=O)NC(=O)[C@H](Cc1c[nH]c2ccccc12)NC(=O)[C@@H](Cc1ccc(O)cc1)NC(C)=O)[C@@H](C)O)C(=O)N[C@@H](Cc1c[nH]c2ccccc12)C(N)=O` [Compound No. 766, Ac-D-Tyr-Trp-Asn-Thr-Phe(3F)-AzaGly-Leu-Arg(Me)-Trp-NH2] (Ac-[dY]WNT[Phe(3-F)][azaGly]L[Arg(Me)]W-NH2), the “Specific Activity: intracellular Ca ion level-increasing activity [specific activity to Metastin (1-54)]” value turned out to be 0.2.
`CNC(=N)NCCC[C@H](NC(=O)[C@H](CC(C)C)NC(=O)NNC(=O)[C@H](Cc1ccccc1)NC(=O)[C@@H](NC(=O)[C@H](CC(=O)NCc1ccccc1)NC(=O)[C@@H](Cc1c[nH]c2ccccc12)NC(=O)[C@@H](Cc1ccc(O)cc1)NC(C)=O)[C@@H](C)O)C(=O)N[C@@H](Cc1c[nH]c2ccccc12)C(N)=O` [Compound No. 716, Ac-D-Tyr-D-Trp-Asp(NHBzl)-Thr-Phe-AzaGly-Leu-Arg(Me)-Trp-NH2] (Ac-[dY][dW]D(NHBn)TF[azaGly]L[Arg(Me)]W-NH2): the “Specific Activity: intracellular Ca ion level-increasing activity [specific activity to Metastin (1-54)]” value is given as 3.6.
Next, `CNC(=N)NCCC[C@H](NC(=O)[C@H](CC(C)C)NC(=O)NNC(=O)[C@H](Cc1ccc(F)cc1)NC(=O)[C@@H](NC(=O)[C@H](CC(N)=O)NC(=O)C(C)(C)NC(=O)[C@@H](Cc1ccc(O)cc1)NC(C)=O)[C@@H](C)O)C(=O)N[C@@H](Cc1c[nH]c2ccccc12)C(N)=O` [Compound No. 791, Ac-D-Tyr-Aib-Asn-Thr-Phe(4F)-AzaGly-Leu-Arg(Me)-Trp-NH2] (Ac-[dY][Aib]NT[Phe(4-F)][azaGly]L[Arg(Me)]W-NH2): 2.9; `CNC(=N)NCCC[C@H](NC(=O)[C@H](CC(C)C)NC(=O)NNC(=O)[C@@H](Cc1ccccc1)NC(=O)[C@@H](NC(=O)[C@H](CC(N)=O)NC(=O)[C@@H]1C[C@@H](O)CN1C(=O)[C@@H](Cc1ccc(O)cc1)NC(C)=O)[C@@H](C)O)C(=O)N[C@@H](Cc1c[nH]c2ccccc12)C(N)=O` [Compound No. 794, Ac-D-Tyr-Hyp-Asn-Thr-D-Phe-AzaGly-Leu-Arg(Me)-Trp-NH2] (Ac-[dY][Hyp]NT[dF][azaGly]L[Arg(Me)]W-NH2): 2.3.
Next, `CNC(=N)NCCC[C@H](NC(=O)[C@H](CC(C)C)NC(=O)NNC(=O)[C@H](Cc1ccccc1)NC(=O)[C@@H](NC(=O)[C@H](CC(N)=O)NC(=O)CNC(=O)[C@@H](Cc1ccc(O)cc1)NC(C)=O)[C@@H](C)O)C(=O)N[C@@H](Cc1c[nH]c2ccccc12)C(N)=O` [Compound No. 726, Ac-D-Tyr-Gly-Asn-Thr-Phe-AzaGly-Leu-Arg(Me)-Trp-NH2] (Ac-[dY]GNTF[azaGly]L[Arg(Me)]W-NH2): 3.1; `CNC(=N)NCCC[C@H](NC(=O)[C@H](CC(C)C)NC(=O)NNC(=O)[C@H](Cc1ccccc1)NC(=O)[C@@H](NC(=O)[C@H](CC(N)=O)NC(=O)[C@@H]1CNCCN1C(=O)[C@@H](Cc1ccc(O)cc1)NC(C)=O)[C@@H](C)O)C(=O)N[C@@H](Cc1c[nH]c2ccccc12)C(N)=O` [Compound No. 760, Ac-D-Tyr-Pzc(2)-Asn-Thr-Phe-AzaGly-Leu-Arg(Me)-Trp-NH2] (Ac-[dY][Pip(4-aza)]NTF[azaGly]L[Arg(Me)]W-NH2): 1.7; `CNC(=N)NCCC[C@H](NC(=O)[C@H](CC(C)C)NC(=O)NNC(=O)[C@H](Cc1ccccc1)NC(=O)c1ccc(CN(Cc2ccccn2)Cc2ccccn2)cc1)C(=O)N[C@@H](Cc1c[nH]c2ccccc12)C(N)=O` [Compound No. 801, 4-[Bis-(2-Pyridylmethyl)aminomethyl]benzoyl-Phe-AzaGly-Leu-Arg(Me)-Trp-NH2]: 11.1.
Next, `CNC(=N)NCCC[C@H](NC(=O)[C@H](CC(C)C)NC(=O)NNC(=O)[C@H](Cc1ccccc1)NC(=O)[C@@H](NC(=O)[C@H](CC(N)=O)NC(=O)[C@@H](CO)NC(=O)[C@@H](Cc1ccc(O)cc1)NC(C)=O)[C@@H](C)O)C(=O)N[C@@H](Cc1c[nH]c2ccccc12)C(N)=O` [Compound No. 737, Ac-D-Tyr-D-Ser-Asn-Thr-Phe-AzaGly-Leu-Arg(Me)-Trp-NH2] (Ac-[dY][dS]NTF[azaGly]L[Arg(Me)]W-NH2): 3.0; `CNC(=N)NCCC[C@H](NC(=O)[C@H](CC(C)C)NC(=O)NNC(=O)[C@H](Cc1cccc(F)c1)NC(=O)[C@@H](NC(=O)[C@H](CC(N)=O)NC(=O)CNC(=O)[C@@H](Cc1ccc(O)cc1)NC(C)=O)[C@@H](C)O)C(=O)N[C@@H](Cc1c[nH]c2ccccc12)C(N)=O` [Compound No. 785, Ac-D-Tyr-Gly-Asn-Thr-Phe(3F)-AzaGly-Leu-Arg(Me)-Trp-NH2] (Ac-[dY]GNT[Phe(3-F)][azaGly]L[Arg(Me)]W-NH2): 3.2.
As for `CNC(=N)NCCC[C@H](NC(=O)[C@H](CC(C)C)NC(=O)NNC(=O)[C@H](Cc1ccccc1)NC(=O)[C@@H](NC(=O)[C@H](CC(N)=O)NC(=O)[C@@H]1C[C@H](O)CN1C(=O)[C@@H](Cc1ccc(O)cc1)NC(C)=O)[C@@H](C)O)C(=O)N[C@@H](Cc1c[nH]c2ccccc12)C(N)=O` [Compound No. 896, Ac-D-Tyr-cisHyp-Asn-Thr-Phe-AzaGly-Leu-Arg(Me)-Trp-NH2] (Ac-[dY][cisHyp]NTF[azaGly]L[Arg(Me)]W-NH2), the “Specific Activity: intracellular Ca ion level-increasing activity [specific activity to Metastin (1-54)]” value is given as 0.6.
Next, `CNC(=N)NCCC[C@H](NC(=O)[C@H](CC(C)C)NC(=O)NNC(=O)[C@H](Cc1ccccc1)NC(=O)[C@@H](NC(=O)[C@H](CC(N)=O)NC(=O)[C@@H]1CSCN1C(=O)[C@@H](Cc1ccc(O)cc1)NC(C)=O)[C@@H](C)O)C(=O)N[C@@H](Cc1c[nH]c2ccccc12)C(N)=O` [Compound No. 724, Ac-D-Tyr-Thz-Asn-Thr-Phe-AzaGly-Leu-Arg(Me)-Trp-NH2] (Ac-[dY][Thz]NTF[azaGly]L[Arg(Me)]W-NH2): 1.4; `CNC(=N)NCCC[C@H](NC(=O)[C@H](CC(C)C)NC(=O)NNC(=O)[C@H](Cc1ccccc1F)NC(=O)[C@@H](NC(=O)[C@H](CC(N)=O)NC(=O)CNC(=O)[C@@H](Cc1ccc(O)cc1)NC(C)=O)[C@@H](C)O)C(=O)N[C@@H](Cc1c[nH]c2ccccc12)C(N)=O` [Compound No. 783, Ac-D-Tyr-Gly-Asn-Thr-Phe(2F)-AzaGly-Leu-Arg(Me)-Trp-NH2] (Ac-[dY]GNT[Phe(2-F)][azaGly]L[Arg(Me)]W-NH2): 8.8; `CNC(=N)NCCC[C@H](NC(=O)[C@H](CC(C)C)NC(=O)NNC(=O)[C@H](Cc1ccccc1F)NC(=O)[C@@H](NC(=O)[C@H](CC(N)=O)NC(=O)C(C)(C)NC(=O)[C@@H](Cc1ccc(O)cc1)NC(C)=O)[C@@H](C)O)C(=O)N[C@@H](Cc1c[nH]c2ccccc12)C(N)=O` [Compound No. 784, Ac-D-Tyr-Aib-Asn-Thr-Phe(2F)-AzaGly-Leu-Arg(Me)-Trp-NH2] (Ac-[dY][Aib]NT[Phe(2-F)][azaGly]L[Arg(Me)]W-NH2): 3.4.
Next, `CNC(=N)NCCC[C@H](NC(=O)[C@H](CC(C)C)NC(=O)NNC(=O)[C@H](Cc1ccc(F)cc1)NC(=O)[C@@H](NC(=O)[C@H](CC(N)=O)NC(=O)[C@H](CCC(=O)O)NC(=O)[C@@H](Cc1ccc(O)cc1)NC(C)=O)[C@@H](C)O)C(=O)N[C@@H](Cc1c[nH]c2ccccc12)C(N)=O` [Compound No. 788, Ac-D-Tyr-Glu-Asn-Thr-Phe(4F)-AzaGly-Leu-Arg(Me)-Trp-NH2] (Ac-[dY]ENT[Phe(4-F)][azaGly]L[Arg(Me)]W-NH2): 2.7; `CNC(=N)NCCC[C@H](NC(=O)[C@H](CC(C)C)NC(=O)NNC(=O)[C@H](Cc1ccccc1)NC(=O)[C@@H](NC(=O)[C@H](CC(N)=O)NC(=O)[C@H](CCC(=O)O)NC(=O)[C@@H](Cc1ccc(O)cc1)NC(C)=O)[C@@H](C)O)C(=O)N[C@@H](Cc1c[nH]c2ccccc12)C(N)=O` [Compound No. 746, Ac-D-Tyr-Glu-Asn-Thr-Phe-AzaGly-Leu-Arg(Me)-Trp-NH2] (Ac-[dY]ENTF[azaGly]L[Arg(Me)]W-NH2): 2.2.
Next, `CNC(=N)NCCC[C@H](NC(=O)[C@H](CC(C)C)NC(=O)NNC(=O)[C@H](Cc1ccccc1)NC(=O)[C@@H](NC(=O)[C@H](CC(N)=O)NC(=O)[C@H](C)NC(=O)[C@@H](Cc1ccc(O)cc1)NC(C)=O)[C@@H](C)O)C(=O)N[C@@H](Cc1c[nH]c2ccccc12)C(N)=O` [Compound No. 742, Ac-D-Tyr-Ala-Asn-Thr-Phe-AzaGly-Leu-Arg(Me)-Trp-NH2] (Ac-[dY]ANTF[azaGly]L[Arg(Me)]W-NH2): 2.3; `CNC(=N)NCCC[C@H](NC(=O)[C@H](CC(C)C)NC(=O)NNC(=O)[C@H](Cc1ccccc1)NC(=O)[C@@H](NC(=O)[C@H](CC(N)=O)NC(=O)[C@H](Cc1cncn1C)NC(=O)[C@@H](Cc1ccc(O)cc1)NC(C)=O)[C@@H](C)O)C(=O)N[C@@H](Cc1c[nH]c2ccccc12)C(N)=O` [Compound No. 773, Ac-D-Tyr-His(3Me)-Asn-Thr-Phe-AzaGly-Leu-Arg(Me)-Trp-NH2] (Ac-[dY][His(π-Me)]NTF[azaGly]L[Arg(Me)]W-NH2): 1.1; `CNC(=N)NCCC[C@H](NC(=O)[C@H](CC(C)C)NC(=O)NNC(=O)[C@H](Cc1ccccc1)NC(=O)[C@@H](NC(=O)[C@H](CC(N)=O)NC(=O)[C@@H]1C[C@@H](O)CN1C(=O)[C@@H](Cc1ccc(O)cc1)NC(=O)CO)[C@@H](C)O)C(=O)N[C@@H](Cc1c[nH]c2ccccc12)C(N)=O` [Compound No. 776, Glycoloyl-D-Tyr-Hyp-Asn-Thr-Phe-AzaGly-Leu-Arg(Me)-Trp-NH2] (Glycolyl-[dY][Hyp]NTF[azaGly]L[Arg(Me)]W-NH2): 1.5.

For the origin of these results see patent publication US8404643B2, “Metastin derivatives and use thereof” (priority 2005, dated 2013).
